Source: patent US20140274978A1, “Phytosterol spirostane and spirostene derivatives having a wide variety of utilities in humans and other animals” (priority 2013, published 2014)
Like-named read-outs stand apart in the source and are kept apart here.

Columns and labels:
[1] = cited from earlier work
[2] = Life span of a Great Dane on daily administration; type: in vivo, dogs; conditions: 8 mg/day from age 8, upper limit for lineage 10 years
Experimental: The compounds of invention are also useful for lengthening the life span of various large breeds of dogs (and presumably small breeds). One Great Dane. given 25R-Spirostan-3B, 5α-diol-6-one daily (8 mg/day) from age 8 on. lived to be almost 13 years old. The dog had to be euthanized because it suffered from dysplasia in both hips; otherwise it was healthy and active. The upper limit of age for Great Danes of this lineage was previously considered to be 10 years.
A Great Dane that was given 25R-Spirostan-3B, 5α-diol-6-one daily (8 mg/day) from age 8 on lived to be almost 13 years old. The dog had to be euthanized because it suffered from dysplasia in both hips; otherwise it was healthy and active. The upper limit of age for Great Danes of this particular lineage was previously considered to be 10 years.

androgen receptors = biological target: T1, androgen receptors (Homo sapiens, UniProt P10275); experiment: Competitive binding inhibition studies (Baylor University), androgen receptors; conditions: even at the limits of compound solubility
T1 sequence (P10275 1-920): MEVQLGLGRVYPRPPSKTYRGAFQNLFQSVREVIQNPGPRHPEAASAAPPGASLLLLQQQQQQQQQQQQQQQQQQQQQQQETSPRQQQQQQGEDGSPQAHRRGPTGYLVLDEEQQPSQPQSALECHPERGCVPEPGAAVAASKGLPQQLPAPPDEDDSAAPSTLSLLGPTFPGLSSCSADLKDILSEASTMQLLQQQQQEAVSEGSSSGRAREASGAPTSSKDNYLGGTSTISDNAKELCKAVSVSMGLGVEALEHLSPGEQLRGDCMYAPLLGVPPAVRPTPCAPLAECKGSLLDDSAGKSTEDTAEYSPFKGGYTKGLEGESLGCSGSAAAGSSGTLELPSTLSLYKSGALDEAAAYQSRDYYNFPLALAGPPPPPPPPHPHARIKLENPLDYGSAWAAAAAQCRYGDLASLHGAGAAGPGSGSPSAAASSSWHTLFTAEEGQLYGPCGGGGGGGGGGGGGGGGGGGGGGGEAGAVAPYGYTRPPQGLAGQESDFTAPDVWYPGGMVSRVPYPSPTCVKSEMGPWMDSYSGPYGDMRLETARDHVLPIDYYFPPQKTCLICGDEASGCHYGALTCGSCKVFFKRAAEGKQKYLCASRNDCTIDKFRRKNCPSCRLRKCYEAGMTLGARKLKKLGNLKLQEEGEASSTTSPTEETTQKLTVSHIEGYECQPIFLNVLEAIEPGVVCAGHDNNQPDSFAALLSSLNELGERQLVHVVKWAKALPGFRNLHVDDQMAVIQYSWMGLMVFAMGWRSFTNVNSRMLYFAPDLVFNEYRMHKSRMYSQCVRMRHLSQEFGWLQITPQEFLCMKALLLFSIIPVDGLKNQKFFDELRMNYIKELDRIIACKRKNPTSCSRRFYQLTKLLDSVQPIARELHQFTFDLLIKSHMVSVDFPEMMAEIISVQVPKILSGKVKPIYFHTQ
Text: (§1) Consequently, the spirostane and spirostene compounds of the present invention are expected to be devoid of hormonal activity.

[3] = Oral administration to older dogs (vigor, health); type: in vivo; conditions: for activity, stamina, appetite, stiffness, overall health reported by pet owners / lean muscle mass and body fat: dogs of 7-14 years of age; for activity, stamina, appetite, stiffness, overall health reported by pet owners: 1-10 mg/day in two divided doses; for lean muscle mass and body fat: over 2-3 months administration; for behavior of ailing dogs / age lived to: two Rhodesian Ridgeback dogs; for behavior of ailing dogs: age 13, failure to thrive; for age lived to: daily dosages from age 13
Text: Their appetite and activity increased, they became leaner—leaner muscle, wanted to go for walks and became like a new dog. They lived another 3 years on a daily dosages to age 16. Their treating Veterinarian said he had never seen dogs of their size and breed live to such an advanced age. Numerous similar reports were collected.
See Kokl. Akad. Nauk. Uzb., SSR, 1981, v.3, pp. 31-33. See also Farmakol. Toksikol., 1976, 39(5), pp. 631-35.

[4] = Oral administration to aging human volunteers (energy, stamina, sleep); type: in vivo, humans
Experimental: The spirostanic compounds of the invention are also useful in increasing and restoring health and vigor, useful in preventing fatigue, and useful in improving physical condition and performance and increasing work output in aging humans and other mammals. For example, 15 mg of 25R-Spirostan-3B, 5α-diol-6-one was given to a person in three divided doses per day (t.i.d.) for two weeks.
15 mg of 25R-Spirostan-3B, 5α-diol-6-one was given to a person in three divided doses per day (t.i.d.) for two weeks.

[5] = Topical lotion on severely atrophic skin of an elderly person; type: in vivo, humans; conditions: atrophic skin of hands; for skin elasticity and strength: after one month; for traumatic purpurra and venous lakes: two months
Text: Phytosterol derivative compounds of the present invention are also useful as skin agents for animals and useful as cosmetic agents when formulated in preparations which, when applied to the skin, create a penetrating flux that will deliver the compound to both the epidermis and dermis. The preferred lotion formulations are of low irritancy and are generally comprised of either a spirostane or a spirostene or, preferably for synergistic reasons, a combination of both [0.05-0.2% (w/w) combined in a ratio of 2:1 to 1:2] dissolved in a solution consisting of propylene glycol [50-70% (w/w)]. propylene carbonate [15-25% (w/w)], water [10-20% (w/w)], and glycerol [0.12.0% (w/w)]. The steroid solutions are most preferably formulated at 80-90% saturation.
The compounds of invention, when formulated as above, are useful for reversing many aspects of degenerative skin disorders (such as thin, fragile, inelastic skin and weakened dermal blood vessels) due to various causes such as aging or chronic corticosteroid therapy.

[6] = Physical stamina and endurance of hunting dogs; type: in vivo; conditions: 5-10 mg/day
Text: The compounds of invention are also useful for increasing physical stamina and endurance in young working and sporting dogs used for hunting, sled pulling and herding and dogs in competitions such as greyhound racing, field trials, agility, disc dog, dock jumping and Schutzhund.

estrogen receptors = experiment: Competitive binding inhibition studies (Baylor University), estrogen receptors; conditions: even at the limits of compound solubility
Text: as §1

[7] = 3 grams/day for 30 days, humans; cited from earlier work
[8] = rat, in vivo, 25 mg/kg; cited from earlier work
[9] = Oral 5-androsten-3β,17β-diol-7-one diacetate with weight resistance training; type: in vivo, humans
Experimental: Human volunteers familiar with conventional anabolic steroids used 60 mg/day (20 mg tid) 5-androsten-3β,17β-diol-7-one diacetate orally, in conjunction with weight resistance training.

[10] = labeled ecdysterone 50 mg/kg, mice; cited from earlier work
protein synthesis = conditions: cited from earlier work; for sensitivity of protein stimulation to actinomycin D: Russian report, Biol. Nauki 1984
[11] = Synergy of 7-keto-diosgenin with laxogenin and/or 5-hydroxy laxogenin (inventor's finding); conditions: 1:1 ratio found effective
[12] = Laxogenin in a person with double knee replacement (pain, recovery); type: in vivo, humans
Experimental: The compounds of the present invention also have the ability to mediate and/or reduce pain in humans and other animals. A person received a double knee replacement due to long time injuries. They began taking 3 doses per day of Laxogenin at 150 mg per dose one week prior to knee surgery.

[13] = 15 mg in three divided doses per day, two weeks, person

SMILES: C[C@@H]1CC[C@@]2(OC1)O[C@H]1C[C@H]3[C@@H]4CC(=O)[C@@]5(O)C[C@@H](O)CC[C@]5(C)[C@H]4CC[C@]3(C)[C@H]1[C@@H]2C [25R-Spirostan-3B, 5α-diol-6-one, (25R)-spirostan-3β-5α-diol-6-one]
- anabolic activity in older (mature) rats ([1]; older (i.e. mature) rats): reduced anabolic activity
- anabolic activity in young rats ([1]; young rats): higher anabolic activity
- age lived to [2]: ~13 years
- binding to androgen receptors (androgen receptors): did not bind
- activity, stamina, appetite, stiffness, overall health reported by pet owners [3]: increased activity, playfulness, physical stamina, appetite and interaction with owners, reduced stiffness and weakness, and improved overall health
- lean muscle mass and body fat [3]: increased many of the dogs' lean muscle mass while reducing body fat
- length of time able to work in garden [4, 13]: 2-3 times
- well-being, energy and physical stamina [4, 13]: overall increase in well-being, accompanied by a definite increase in energy and physical stamina
- total sleep time ([4]; 60 mg/day, over one month, increased from 6 hrs/night): approximately 8 hrs/night
- physical energy and stamina ([4]; 60 mg/day, person and person): definite increases in physical energy and stamina within one week
- skin elasticity and strength [5]: dramatic increases in skin elasticity and strength
- traumatic purpurra and venous lakes [5]: Virtually all traumatic purpurra and venous lakes were resolved within two months
- physical stamina and endurance [6]: noticeable improvement in their dogs physical stamina and endurance within one week
- binding to estrogen receptors (estrogen receptors): did not bind

SMILES: C[C@@H]1CC[C@@]2(OC1)O[C@H]1C[C@H]3[C@@H]4CC=C5C[C@@H](O)CC[C@]5(C)[C@H]4CC[C@]3(C)[C@H]1[C@@H]2C [diosgenin]
- metabolism in the B-ring [7]: not metabolized in the B-ring
- serum half-life [8]: approximately 14 hours

SMILES: CC(=O)O[C@H]1CC[C@@]2(C)C(=CC(=O)[C@H]3[C@@H]4CC[C@H](OC(C)=O)[C@@]4(C)CC[C@@H]32)C1 [5-androsten-3β,17β-diol-7-one diacetate]
- androgenic side-effects ([9]; 60 mg/day (20 mg tid) orally): No subject reported any noticeable androgenic side-effects
- strength, endurance and muscle mass accretion ([9]; 60 mg/day (20 mg tid) orally with weight resistance training): increases in strength and endurance as well as accelerated increases in muscle mass accretion

SMILES: CC(C)(O)CC[C@@H](O)[C@](C)(O)[C@H]1CC[C@@]2(O)C3=CC(=O)[C@@H]4C[C@@H](O)[C@@H](O)C[C@]4(C)[C@H]3CC[C@]12C [ecdysterone, 20-Hydroxyecdysone]
- serum half-life [10]: 8.15 min
- repression of induced protein synthesis by actinomycin D (protein synthesis; Japanese report, Chem. Pharm. Bull. 1969): partially repressed
- sensitivity of protein stimulation to actinomycin D (protein synthesis): completely insensitive to actinomycin D

SMILES: C[C@@H]1CC[C@@]2(OC1)O[C@H]1C[C@H]3[C@@H]4C(=O)C=C5C[C@@H](O)CC[C@]5(C)[C@H]4CC[C@]3(C)[C@H]1[C@@H]2C [7-keto-diosgenin, 5,25R-spirosten-3β-ol-7-one]
- activity, stamina, appetite, stiffness, overall health reported by pet owners [3]: increased activity, playfulness, physical stamina, appetite and interaction with owners, reduced stiffness and weakness, and improved overall health
- lean muscle mass and body fat [3]: increased many of the dogs' lean muscle mass while reducing body fat
- behavior of ailing dogs [3]: started to exhibit puppy like behavior after 48 hours
- age lived to [3]: 16
- skin elasticity and strength [5]: dramatic increases in skin elasticity and strength
- traumatic purpurra and venous lakes [5]: Virtually all traumatic purpurra and venous lakes were resolved within two months
- physical stamina and endurance [6]: noticeable improvement in their dogs physical stamina and endurance within one week
- synergy with laxogenin and/or 5-hydroxy laxogenin [11]: unexpectedly synergistic

SMILES: CC(C)(O)CC[C@@H](O)[C@](C)(O)[C@H]1CC[C@@]2(O)C3=CC(=O)[C@@H]4C[C@@H](O)[C@@H](O)C[C@]4(C)[C@H]3[C@H](O)C[C@]12C [turkesterone]
- sensitivity of protein stimulation to actinomycin D (protein synthesis): completely insensitive to actinomycin D

SMILES: C[C@@H]1CC[C@@]2(OC1)O[C@H]1C[C@H]3[C@@H]4CC(=O)[C@H]5C[C@@H](O)CC[C@]5(C)[C@H]4CC[C@]3(C)[C@H]1[C@@H]2C [Laxogenin, (25R)-3β-hydroxy-5α-spirostan-6-one]
- behavior of ailing dogs [3]: started to exhibit puppy like behavior after 48 hours
- age lived to [3]: 16
- pain before surgery ([12]; 3 doses per day at 150 mg per dose, started one week prior to knee surgery): pain had diminished their third day
- standing and walking ([12]; 7th day after surgery): could stand and walk far distances free of pain, stiffness and discomfort
- need for morphine drip ([12]; day after operation): able to discontinue their morphine drip altogether
- surface inflammation and scarring ([12]; liquid version applied topically): reduced surface inflammation and scarring greatly
